Measurements published in PubChem BioAssay AID1259407 (Chemical Carcinogenesis Research Information System (CCRIS), 2018).
Calls of active or inactive are those of the source. The rule behind the calls is not given here.

Test system: CCRIS mutagenicity, Ames/micronucleus/aberration tests
Test: CCRIS mutagenicity studies

O=C(O)/C=C/C(=O)O
mutagenic call (Test System: AMES SALMONELLA TYPHIMURIUM, Strain/Indicator: TA97, Metabolic Activation: HAMSTER, LIVER, S-9, AROCLOR 1254 (10 OR 30%), Method: PREINCUBATION): inactive; negative
mutagenic call (Test System: AMES SALMONELLA TYPHIMURIUM, Strain/Indicator: TA97, Metabolic Activation: NONE, Method: PREINCUBATION): inactive; negative
mutagenic call (Test System: AMES SALMONELLA TYPHIMURIUM, Strain/Indicator: TA97, Metabolic Activation: RAT, LIVER, S-9, AROCLOR 1254 (10 OR 30%), Method: PREINCUBATION): inactive; negative
mutagenic call (Test System: AMES SALMONELLA TYPHIMURIUM, Strain/Indicator: TA97, Metabolic Activation: RAT, LIVER, S-9, AROCLOR 1254, Method: PREINCUBATION): inactive; negative
mutagenic call (Test System: AMES SALMONELLA TYPHIMURIUM, Strain/Indicator: TA98, Metabolic Activation: HAMSTER, LIVER, S-9, AROCLOR 1254 (10 OR 30%), Method: PREINCUBATION): inactive; negative
mutagenic call (Test System: AMES SALMONELLA TYPHIMURIUM, Strain/Indicator: TA98, Metabolic Activation: NONE, Method: PREINCUBATION): inactive; negative
mutagenic call (Test System: AMES SALMONELLA TYPHIMURIUM, Strain/Indicator: TA98, Metabolic Activation: RAT, LIVER, S-9, AROCLOR 1254 (10 OR 30%), Method: PREINCUBATION): inactive; negative
mutagenic call (Test System: AMES SALMONELLA TYPHIMURIUM, Strain/Indicator: TA100, Metabolic Activation: HAMSTER, LIVER, S-9, AROCLOR 1254 (10 OR 30%), Method: PREINCUBATION): inactive; negative
mutagenic call (Test System: AMES SALMONELLA TYPHIMURIUM, Strain/Indicator: TA100, Metabolic Activation: NONE, Method: PREINCUBATION): inactive; negative
mutagenic call (Test System: AMES SALMONELLA TYPHIMURIUM, Strain/Indicator: TA100, Metabolic Activation: RAT, LIVER, S-9, AROCLOR 1254 (10 OR 30%), Method: PREINCUBATION): inactive; negative
mutagenic call (Test System: AMES SALMONELLA TYPHIMURIUM, Strain/Indicator: TA102, Metabolic Activation: NONE, Method: PREINCUBATION): inactive; negative
mutagenic call (Test System: AMES SALMONELLA TYPHIMURIUM, Strain/Indicator: TA102, Metabolic Activation: RAT, LIVER, S-9, AROCLOR 1254, Method: PREINCUBATION): inactive; negative
mutagenic call (Test System: AMES SALMONELLA TYPHIMURIUM, Strain/Indicator: TA1535, Metabolic Activation: HAMSTER, LIVER, S-9, AROCLOR 1254 (10 OR 30%), Method: PREINCUBATION): inactive; negative
mutagenic call (Test System: AMES SALMONELLA TYPHIMURIUM, Strain/Indicator: TA1535, Metabolic Activation: NONE, Method: PREINCUBATION): inactive; negative
mutagenic call (Test System: AMES SALMONELLA TYPHIMURIUM, Strain/Indicator: TA1535, Metabolic Activation: RAT, LIVER, S-9, AROCLOR 1254 (10 OR 30%), Method: PREINCUBATION): inactive; negative
mutagenic call (Test System: MOUSE LYMPHOMA, Strain/Indicator: L5178Y (TK+/TK-), Metabolic Activation: NONE, Method: SUSPENSION/PLATE): active; positive. reevaluation of results: positive
mutagenic call (Test System: MOUSE LYMPHOMA, Strain/Indicator: L5178Y (TK+/TK-), Metabolic Activation: RAT, LIVER, S-9, AROCLOR 1254, Method: SUSPENSION/PLATE): active; positive. reevaluation of results: positive

CCCCCc1ccco1
mutagenic call (Test System: CHINESE HAMSTER V-79, Strain/Indicator: V-79 (HPRT)/6-THIOGUANINE, Metabolic Activation: NONE, Method: STANDARD PLATE): inactive; negative
mutagenic call (Test System: CHINESE HAMSTER V-79, Strain/Indicator: V-79 (HPRT)/6-THIOGUANINE, Metabolic Activation: RAT LIVER S-9, Method: STANDARD PLATE): inactive; negative

O=c1c(O[C@@H]2O[C@H](CO)[C@@H](O)[C@H](O)[C@H]2O)c(-c2ccc(O)c(O)c2)oc2cc(O)cc(O)c12
mutagenic call (Test System: AMes Salmonella typhimurium, Strain/Indicator: TA98, Metabolic Activation: None, Method: Standard plate): active; positive
mutagenic call (Test System: Ames Salmonella typhimurium, Strain/Indicator: 98, Metabolic Activation: Rat, Liver, S-9, Aroclor 1254, Method: Standard plate): active; positive
mutagenic call (Test System: Ames Salmonella typhimurium, Strain/Indicator: TA100, Metabolic Activation: None, Method: Standard plate): inactive; negative
mutagenic call (Test System: Ames Salmonella typhimurium, Strain/Indicator: TA100, Metabolic Activation: Rat, Liver, S-9, Aroclor 1254, Method: Standard plate): active; positive

Cc1nn(C)c(N)c1C(=O)c1ccccc1F
mutagenic call (Test System: AMES SALMONELLA TYPHIMURIUM, Strain/Indicator: TA98, Metabolic Activation: RAT, LIVER, S-9, AROCLOR 1254, Method: PREINCUBATION): active; positive
mutagenic call (Test System: AMES SALMONELLA TYPHIMURIUM, Strain/Indicator: TA98, Metabolic Activation: RAT, LIVER, S-9, AROCLOR 1254, Method: STANDARD PLATE): active; positive
mutagenic call (Test System: AMES SALMONELLA TYPHIMURIUM, Strain/Indicator: TA98, Metabolic Activation: RAT, LIVER, S-9, PHENOBARBITAL, Method: PREINCUBATION): active; positive
mutagenic call (Test System: AMES SALMONELLA TYPHIMURIUM, Strain/Indicator: TA100, Metabolic Activation: RAT, LIVER, S-9, AROCLOR 1254, Method: PREINCUBATION): active; positive
mutagenic call (Test System: AMES SALMONELLA TYPHIMURIUM, Strain/Indicator: TA100, Metabolic Activation: RAT, LIVER, S-9, AROCLOR 1254, Method: STANDARD PLATE): active; positive
mutagenic call (Test System: AMES SALMONELLA TYPHIMURIUM, Strain/Indicator: TA100, Metabolic Activation: RAT, LIVER, S-9, PHENOBARBITAL, Method: PREINCUBATION): active; positive
